What was measured:
[1] = test system: insect; settings: from Schneiderman and Gilbert, Science 143; cited from earlier work
[2] = test system: Drosophila melangaster EcR isoforms; experiment: Drosophila melanogaster EcR isoforms, response to ecdysteroid agonists (FIG. 8); type: cell-based
Procedure: Unless noted otherwise, 100 ng of each EcR and USP plasmid was transfected into 2 ml of cell culture medium. As noted above, a reporter gene carrying five tandem copies of the hsp27 ecdysone response element (Riddihough and Pelham, 1986) is attached to a constitutive thymidine kinase promoter and a luciferase reporter gene (pEcREtk-LUC) and cotransfected into the cells along with vectors expressing EcR, USP, and a constitutively active β-galactosidase gene with lipofection, following manufacturer's protocols. The subsequent measure of luciferase activity reflects ecdysteroid-inducible transcription.
The Drosophila EcR isoform vectors (A, B1, and B2) used for these experiments have been described previously (Mouillet et al, 2001). These vectors lack the F-domain, which is also not essential for in vivo function (Cherbas et al, 2003). Additionally, three different VP16-USP vectors were utilized. Construction is of the VP16-USP vectors is described below. As in the earlier study, hsp27-EcRE mediated transcriptional activity was measured by detecting the luminescence produced by luciferase in transfected cell extracts. Luciferase activity was normalized by transfection with a plasmid that constitutively expresses the β-galactosidase gene such that enzymatic activity correlated with cellular mass. […]

[3] = target: T1, GGEc (Drosophila melanogaster, UniProt P34021); experiment: GGEc chimera (GR amino terminus and DBD, EcR LBD) with RXR in CHO cells; type: cell-based; settings: 20 μM juvocimene; 0.2 μM muristerone A
T1 construct: were replaced by EcR LBD amino acids (EcR amino acids 329 to 878); expressed in transfected cells; host or cells: CHO
T1 sequence (P34021 329-878): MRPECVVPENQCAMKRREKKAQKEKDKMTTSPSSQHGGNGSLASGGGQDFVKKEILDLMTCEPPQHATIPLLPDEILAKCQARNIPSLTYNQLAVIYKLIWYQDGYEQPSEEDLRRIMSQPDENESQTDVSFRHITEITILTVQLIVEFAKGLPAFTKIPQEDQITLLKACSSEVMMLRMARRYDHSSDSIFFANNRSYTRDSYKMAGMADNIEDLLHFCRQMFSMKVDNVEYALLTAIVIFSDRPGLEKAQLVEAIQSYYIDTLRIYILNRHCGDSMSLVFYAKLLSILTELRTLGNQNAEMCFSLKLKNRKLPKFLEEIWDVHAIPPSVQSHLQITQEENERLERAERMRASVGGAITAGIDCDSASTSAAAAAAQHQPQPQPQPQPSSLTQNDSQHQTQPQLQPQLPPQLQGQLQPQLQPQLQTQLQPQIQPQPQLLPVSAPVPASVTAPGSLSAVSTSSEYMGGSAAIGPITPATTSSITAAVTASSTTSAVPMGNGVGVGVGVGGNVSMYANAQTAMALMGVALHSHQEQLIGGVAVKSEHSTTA
Description: For these experiments, the luciferase reporter construct was used. To obviate influences from other transcription factors, results were normalized using a reporter plasmid from which CAT expression is driven by a minimal promoter consisting of dimerized GREs linked upstream of a 13 base pair TATA box DNA element derived from the adenovirus E1B gene.
In this experiment, GGEc and RXR were transfected into CHO cells with either a CAT or a luciferase reporter plasmid containing 1.5 kilobase pairs of the glucocorticoid-inducible mouse mammary tumor virus (MTV) promoter.
In these experiments, CHO cells were transfected with a GGEc-expressing plasmid, a mouse RXRα expression plasmid, and an adenovirus E1b TATA-(GRE)2-CAT reporter plasmid. The GGEc plasmid was eliminated from DNA mixtures added to cells transfected in parallel. CAT activities were measured from lysates of cells from triplicate wells treated with ethanol vehicle, juvocimene (20 μM), muristerone A (0.2 μM), or both.
In these experiments, CHO cells were transfected with DNAs as described above but ubiquinone-2 (10 μM) was substituted for juvocimene.

In the case of `CC(C)=CCCC(C)=CCCC(C)=CC(=O)O` [farnesoic acid], the “JH ACTIVITY (units/g)” value [1] is given as 7.8 units/g.

In the case of `CC(C)CC[C@@H](O)[C@](C)(O)[C@H]1CC[C@@]2(O)C3=CC(=O)[C@]4(O)C[C@@H](O)[C@@H](O)C[C@]4(C)[C@H]3[C@H](O)C[C@]12C` [murA, muristerone A], the “stimulation of Drosophila EcR isoforms, agonists compared” value [2] is reported as “much greater stimulation by murA, than either 20E or RH 2485”.

With juvocimene the “GGEc activity increase over MUR” value [3] was 7 times.
